In one test the target is T1, murine TAAR5 (Mus musculus, UniProt Q5QD14).
T1 construct: expressed in transfected cells; host or cells: HANA3A cells
T1 sequence (Q5QD14 1-337): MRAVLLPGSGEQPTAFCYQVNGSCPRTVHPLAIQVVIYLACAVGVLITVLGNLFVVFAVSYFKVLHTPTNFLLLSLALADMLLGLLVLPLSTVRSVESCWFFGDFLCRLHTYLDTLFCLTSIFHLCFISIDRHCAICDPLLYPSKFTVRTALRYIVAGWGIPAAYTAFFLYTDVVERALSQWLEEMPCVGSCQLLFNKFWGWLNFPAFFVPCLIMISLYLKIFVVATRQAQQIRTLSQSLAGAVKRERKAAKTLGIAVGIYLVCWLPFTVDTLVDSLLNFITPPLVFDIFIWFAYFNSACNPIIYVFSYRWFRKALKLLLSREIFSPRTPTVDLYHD
Put plainly: Cre-luciferase assay, murine TAAR5 responses to TMA. It is filed as cell-based. The note with it: Timberol 100 μM.

The next test deals with MOR42-3. Put plainly: Cre-luciferase assay, MOR42-3-mediated responses to azelaic acid. It is filed as cell-based, murine. The note with it: Timberol 30 μM; agonist below and above EC50. On the procedure:
In order to identify suitable antagonist for TMA the protocol of Zhuang and Matsunami for measuring receptor activity with the Dual-Glo Luciferase Assay System (Promega) was adapted [see Nat. Protoc. 3(9), p. 1402-1413 (2008)]. HANA3A cells were maintained under standard conditions in DMEM supplemented with 10% FBS and 100 units/ml penicillin and streptomycin at 37° C. Cells (approximately 15,000 cells/well) were plated on poly-D-lysine-coated 96-well plates (NUNC) and transfected after 24 h with the FuGENE® HD (Promega) transfection reagent according to the manufacturer's protocol. In a 96-well plate, we placed 18 μl transfection reagent, 1-5 μg receptor plasmid, 2 μg pGL4-luciferase reporter, 1 μg pRL-TK-Renilla reporter, 0.5 μg G-protein αolf, 1 μg receptor transport protein (RTP1S) and 1 μg M3 muscarinic acetylcholine receptor (for hOR51E1) to ensure cell surface expression. […] Expression rates of Cre-luciferase were monitored by luminescent enzymatic reactivity. Thus, luminescence signals correlate with receptor activation. […]
Another experiment was directed to figure out whether the Timberol® block is exclusively mediated by hTAAR5. […] Then the impact of Timberol® on MOR42-3- and hOR51E1-mediated responses to the respective agonists was tested with concentrations below and above the calculated EC50 values. […]

The next test deals with panelists. Briefly: Olfactory detection threshold of TMA, 3-alternative forced-choice, ISO 13301. It counts as in vivo, human. On the procedure: In addition, olfactory detection thresholds were assessed in aqueous solutions using a best estimate threshold approach as described in ISO 13301. In brief, samples containing different concentrations of analyte were presented in ascending order in a 3-alternative forced-choice design. Each concentration set consisted of three samples with one deviating sample containing a defined amount of trimethylamine. Samples were presented in amber vials (30 ml) coded with three digits and filled with 10 ml of solution, and panelists were required to designate the sample that differed from the others.
Thresholds of TMA were measured in buffered aqueous solution i) without additive ii) with 1% (m/m) Timberol® and iii) with 0.1% Mugetanol (isointense to 1% Timberol®). These experiments were performed separately on different days with the same panelists. In the case of testing in the presence of fragrance components (Timberol® or Mugetanol), all three samples of a given concentration set contained the same amount of fragrance components and differed only in the presence/absence of TMA. In each session, a total of 10 concentration sets ranging from […] to 1.00×10^−5% (m/m) TMA were evaluated. The concentration doubled in each step.
The aqueous solutions were buffered with TRIS (50 mM), and the pH was adjusted to 9 to have approximately 13% of the TMA in a deprotonated and thus volatile form. Furthermore, an odorless emulsifier was added to a final concentration of 3% (m/m) to dissolve Timberol®.
In a second step, the influence of Timberol® on the perception of TMA was investigated using a psychophysical approach. Therefore the detection thresholds of TMA alone and in the presence of suprathreshold concentrations of Timberol® were tested. Threshold measurements were performed in a 3-alternative forced-choice design according to ISO 13301. A total of 10 concentrations (binary dilution steps) ranging from […] to 1.00×10^−5% (m/m) TMA were examined.

Entries after “also recorded” stand apart in the source; their conditions may differ.

As for `CCCC(O)CCC1C(C)CCCC1(C)C` (centres unmarked) [Timberol®, Norlimbanol], the “blocking effect on murine TAAR5” value at murine TAAR5 (1 μM TMA) is listed as 34%±2%. Moreover, the “inhibition of mTAAR5-mediated responses to TMA” value against murine TAAR5 is listed as “able to block; also recorded: inhibits”. The “blocking effect on MOR42-3-mediated responses to azelaic acid” value in the test with MOR42-3 is listed as “no any significant impact; also recorded: No significant blocking effects”. Further, the “influence of additive on TMA detection threshold / perception” value with panelists (1% Timberol or 0.1% Mugetanol (isointense)) is listed as “abolished the ability to perceive TMA around perithreshold concentrations; also recorded: shifted to a significantly higher concentration”. Besides, the “subjects less sensitive to TMA in the presence of Timberol” value with panelists (of the 27 tested subjects) was determined as 23.
